Results published in US6867320B2, “Substituted phenylalkanoic acid derivatives and use thereof” (Asahi Kasei Pharma Corporation, priority 2002, dated 2005).

Tests used:
[1] = system: LTB4 production from IgE-stimulated RBL-2H3 cells; test: Suppressing action on LTB4 production from IgE-stimulated RBL-2H3 cells; format: cell-based; conditions: Rattus norvegicus, 10 min, IgE/DNP-BSA stimulated RBL-2H3 cells, read-out: LTB4 production suppression ratio
Summary of the method: (§1)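 Rat RBL-2H3 mastocytoma cells, sensitized 30 min with anti-DNP-BSA IgE, then given test compound in 0.5% FBS medium and stimulated with DNP-BSA (100 ng/ml final). Supernatant PGD2 and LTB4 were measured by EIA after 10 min. Suppression ratio is calculated against unstimulated and stimulant-only controls.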

[2] = system: zymosan-stimulated footpad edema; test: Mouse zymosan-stimulated footpad edema reaction; format: in vivo; conditions: ICR female mice, oral 0.1 to 500 mg/kg, compared with positive control group
Summary of the method: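 Female ICR mice (6–7 weeks, n=8) dosed orally at 0.1 to 500 mg/kg in 0.5% methylcellulose; 1 h later zymosan (1 mg/ml, 0.02 ml) injected s.c. into right hind footpad. Edema volume at 1 and 2 h gave AUC to 2 h; suppression (%) calculated against positive control AUC.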

[3] = system: PGD2 production from IgE-stimulated RBL-2H3 cells; test: Suppressing action on PGD2 production from IgE-stimulated RBL-2H3 cells; format: cell-based; conditions: Rattus norvegicus, 10 min, IgE/DNP-BSA stimulated RBL-2H3 cells, read-out: PGD2 production suppression ratio
Summary of the method: as §1

[4] = system: PGE2 production from IL-1β-stimulated MG-63 cells; test: Suppressing action on PGE2 production from IL-1β-stimulated MG-63 cells; format: cell-based; conditions: Homo sapiens, IL-1β 1 ng/ml, 18 hours, read-out: PGE2 production suppression ratio
Summary of the method: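 PGE2 in 18 h supernatants was quantified by EIA and expressed as % suppression relative to IL-1β-only and unstimulated controls. Cells were the MG-63 osteosarcoma line, plated at 2×10^4/well, given compound in 0.5% FBS EMEM, then 1 ng/ml IL-1β final.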

[5] = system: IgE-stimulated footpad edema; test: Mouse IgE-stimulated footpad edema reaction; format: in vivo; conditions: C57BL/6 male mice, oral 0.1 to 500 mg/kg, compared with positive control group
Description: 4. Suppressing Effect on Mouse IgE-stimulated Footpad Edema Reaction
Suppression on footpad edema caused by IgE antibody as an allergic stimulant was studied by the following method. Groups of C57BL/6 male mice (9- to 11-week old) each consisting of five mice were used for the test. Anti-DNP-BSA IgE serum was subcutaneously administered in a volume of 20 μl to right hind leg footpad of each mouse one day before the test. A test compound was suspended or dissolved in purified water containing 0.5% methylcellulose and orally administered to the test animals at 0.1 to 500 mg/0.2 ml/kg. To the control group, purified water containing 0.5% methylcellulose was administered in a similar manner, which was not added with the test compound. Two hours after the administration of the test compound, 0.2 ml of a solution of DNP-BSA dissolved in physiological saline (Otsuka Pharmaceutical) at 2.5 μg/ml was intravenously administered. The thickness of right hind leg footpad was measured by using a digital thickness gauge (MITSUTOYO) 10, 15, 20, and 30 minutes after the administration of DNP-BSA. A difference of the thickness of footpad measured above and the thickness before the administration of the test compound measured beforehand was regarded as a thickness of edema.
For the thickness of the edema at 10, 15, 20 and 30 minutes after the DNP-BSA administration, a graph was prepared indicating time in abscissa and the edema thickness in ordinate, and edema thickness AUC […] was obtained by calculation according to the following equation. Edema thickness AUC (mm·minute)=1/2×10×A+5×(A+B)/2+5×(B+C)/2+10×(C+D)/2 • A: Edema thickness 10 minutes after DNP-BSA administration • B: Edema thickness 15 minutes after DNP-BSA administration • C: Edema thickness 20 minutes after DNP-BSA administration • D: Edema thickness 30 minutes after DNP-BSA administration
A suppressing ratio on edema of a test compound was obtained by calculation in accordance with the following equation. Edema suppression ratio (%)=[1−B/A]×100 • A: Edema thickness AUC of positive control • B: Edema thickness AUC of test compound administered group (2) Measurement Results

SMILES	inhibition at 0.4 µM [1] [%]	suppression of footpad edema caused by zymosan [2]	inhibition at 0.4 µM [3] [%]	inhibition at 0.4 µM [4] [%]	suppression of footpad edema caused by IgE stimulation [5]
Cn1ccc2cc(-c3cc(CCC(=O)O)ccc3OCc3ccccc3Cl)ccc21 [Compound 245, 3-[4-(2-chlorophenylmethyloxy)-3-(1-methyl-1H-indol-5-yl)phenyl]propionic acid]	≥ 50	suppressed footpad edema	≥ 50	≥ 50	suppressed the footpad edema
O=C(O)CCc1ccc(OCC2CCCCC2)c(-c2ccc3cc(O)ccc3c2)c1 [Compound 002, 3-[4-cyclohexylmethyloxy-3-(6-hydroxynaphthalen-2-yl)phenyl]propionic acid]	≥ 50	suppressed footpad edema	≥ 50	≥ 50	suppressed the footpad edema
O=C(O)CCc1ccc(OCC2CCCC2)c(-c2ccc3[nH]ccc3c2)c1 [Compound 100, 3-[4-cyclopentylmethyloxy-3-(1H-indol-5-yl)phenyl]propionic acid]	≥ 50	suppressed footpad edema	≥ 50	≥ 50	suppressed the footpad edema
Cn1ccc2cc(-c3cc(CCC(=O)O)ccc3OCC3CCCCC3)ccc21 [Compound 233, 3-[4-cyclohexylmethyloxy-3-(1-methyl-1H-indol-5-yl)phenyl]propionic acid]	≥ 50	suppressed footpad edema	≥ 50	≥ 50	suppressed the footpad edema
O=C(O)CCc1ccc(OCC2CCCC2)c(-c2ccc3ccccc3c2)c1 [Compound 039, 3-[4-cyclopentylmethyloxy-3-(naphthalen-2-yl)phenyl]propionic acid]	≥ 50	suppressed footpad edema	≥ 50	≥ 50	suppressed the footpad edema
CC(Oc1ccc(CCC(=O)O)cc1-c1ccc2[nH]ccc2c1)c1ccccc1 (stereo not drawn) [Compound 132, 3-[3-(1H-indol-5-yl)-4-(1-phenylethyloxy)phenyl]propionic acid]	≥ 50	suppressed footpad edema	≥ 50	≥ 50	suppressed the footpad edema
O=C(O)CCc1ccc(OCC2CCCC2)c(-c2ccc3ncsc3c2)c1 [Compound 299, 3-[3-(benzothiazol-6-yl)-4-cyclopentylmethyloxyphenyl]propionic acid]	≥ 50	suppressed footpad edema	≥ 50	≥ 50	suppressed the footpad edema
O=C(O)CCc1ccc(OCC2CCCC2)c(-c2ccc3c(ccn3CCO)c2)c1 [Compound 243, 3-{4-cyclopentylmethyloxy-3-[1-(2-hydroxyethyl)-1H-indol-5-yl]phenyl}propionic acid]	≥ 50	suppressed footpad edema	≥ 50	≥ 50	suppressed the footpad edema
CCn1ccc2cc(-c3cc(CCC(=O)O)ccc3OC3CCCCC3)ccc21 [Compound 248, 3-[4-cyclohexyloxy-3-(1-ethyl-1H-indol-5-yl)phenyl]propionic acid]	≥ 50	suppressed footpad edema	≥ 50	≥ 50	suppressed the footpad edema
O=C(O)CCc1ccc(OCCC2CCCC2)c(-c2ccc3ccccc3c2)c1 [Compound 047, 3-[4-(2-cyclopentylethyloxy)-3-(naphthalen-2-yl)phenyl]propionic acid]	≥ 50	suppressed footpad edema	≥ 50	≥ 50	suppressed the footpad edema
CC(C)C(C)COc1ccc(CCC(=O)O)cc1-c1ccc2[nH]ccc2c1 (stereo not drawn) [Compound 181, 3-[4-(2,3-dimethylbutyloxy)-3-(1H-indol-5-yl)phenyl]propionic acid]	≥ 50	suppressed footpad edema	≥ 50	≥ 50	suppressed the footpad edema
O=C(O)CCc1ccc(OCc2ccc(F)cc2)c(-c2ccc3[nH]ccc3c2)c1 [Compound 146, 3-[4-(4-fluorophenylmethyloxy)-3-(1H-indol-5-yl)phenyl]propionic acid]	≥ 50	suppressed footpad edema	≥ 50	≥ 50	suppressed the footpad edema
O=C(O)CCc1ccc(OCC2CCCCC2)c(-c2ccc3[nH]ccc3c2)c1 [Compound 231, 3-[4-cyclohexylmethyloxy-3-(1H-indol-5-yl)phenyl]propionic acid]	≥ 50	suppressed footpad edema	≥ 50	≥ 50	suppressed the footpad edema
Cn1ccc2cc(-c3cc(CCC(=O)O)ccc3OC3CCCC3)ccc21 [Compound 108, 3-[4-cyclopentyloxy-3-(1-methyl-1H-indol-5-yl)phenyl]propionic acid]	≥ 50	suppressed footpad edema	≥ 50	≥ 50	suppressed the footpad edema
CN(CCOc1ccc(CCC(=O)O)cc1-c1ccc2[nH]ccc2c1)c1ccccc1 [Compound 229, 3-{3-(1H-indol-5-yl)-4-[2-(N-phenyl-N-methylamino)-ethyloxy]phenyl}propionic acid]	≥ 50	suppressed footpad edema	≥ 50	≥ 50	suppressed the footpad edema
Nc1nc2ccc(-c3cc(CCC(=O)O)ccc3OC3CCCC3)cc2s1 [Compound 293, 3-[3-(2-aminobenzothiazol-6-yl)-4-cyclopentyloxyphenyl]propionic acid]	≥ 50	suppressed footpad edema	≥ 50	≥ 50	suppressed the footpad edema
O=C(O)CCc1ccc(OC2CCCC2)c(-c2ccc3ccccc3c2)c1 [Compound 043, 3-[4-cyclopentyloxy-3-(naphthalen-2-yl)phenyl]propionic acid]	≥ 50	suppressed footpad edema	≥ 50	≥ 50	suppressed the footpad edema
Nc1nc2ccc(-c3cc(CCC(=O)O)ccc3OCC3CCCCC3)cc2s1 [Compound 289, 3-[3-(2-aminobenzothiazol-6-yl)-4-cyclohexylmethyloxyphenyl]propionic acid]	≥ 50	suppressed footpad edema	≥ 50	≥ 50	suppressed the footpad edema
